Starred links: 1 amine or outer side, 2 acyl side, 3 side chain; linkers in the order of their positions; H or OH if unused. Positions of bridges follow the written chain, without caps; N, C: chain ends. Residues, ends and D or L forms follow the SMILES beside them. CO = O=C([*:1])[*:2]
Molecular target: T1, IL17-RE-IL-17C (Homo sapiens, UniProt Q8NFR9+Q9P0M4)
T1 sequence (Q9P0M4 whole entry): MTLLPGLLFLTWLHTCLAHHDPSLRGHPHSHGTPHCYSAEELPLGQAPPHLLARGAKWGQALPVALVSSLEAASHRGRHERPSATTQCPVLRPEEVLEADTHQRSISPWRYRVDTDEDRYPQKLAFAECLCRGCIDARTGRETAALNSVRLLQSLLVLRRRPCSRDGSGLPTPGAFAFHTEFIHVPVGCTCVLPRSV
T1 sequence (Q8NFR9 whole entry): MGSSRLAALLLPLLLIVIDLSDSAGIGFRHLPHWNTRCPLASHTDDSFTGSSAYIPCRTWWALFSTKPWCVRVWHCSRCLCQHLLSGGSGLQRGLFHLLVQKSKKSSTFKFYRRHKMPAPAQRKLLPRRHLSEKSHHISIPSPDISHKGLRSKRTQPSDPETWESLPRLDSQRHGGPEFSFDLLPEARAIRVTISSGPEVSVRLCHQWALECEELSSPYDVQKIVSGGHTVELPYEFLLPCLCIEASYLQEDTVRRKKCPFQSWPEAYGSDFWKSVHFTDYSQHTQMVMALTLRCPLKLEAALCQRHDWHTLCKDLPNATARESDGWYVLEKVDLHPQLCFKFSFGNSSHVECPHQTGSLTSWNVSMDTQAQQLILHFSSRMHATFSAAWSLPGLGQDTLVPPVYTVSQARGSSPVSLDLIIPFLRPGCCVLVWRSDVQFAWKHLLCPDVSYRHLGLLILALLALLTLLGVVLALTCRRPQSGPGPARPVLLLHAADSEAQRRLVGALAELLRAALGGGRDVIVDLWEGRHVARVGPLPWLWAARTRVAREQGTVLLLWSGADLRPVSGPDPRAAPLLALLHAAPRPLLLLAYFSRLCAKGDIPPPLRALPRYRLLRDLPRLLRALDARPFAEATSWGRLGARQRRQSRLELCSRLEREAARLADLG
Assay: Inhibition of IL-17C/IL-17RE interaction (unknown origin) incubated for 1.5 hrs by ELISA method
Format: protein-complex assay

Point of comparison: `CC[C@H](C)[C@@H]1NC(=O)[C@H](CCC(=O)O)NC(=O)CNC(=O)[C@H](Cc2ccc(O)cc2)NC(=O)[C@H](CC(C)C)NC(=O)[C@H]([C@@H](C)CC)NC(=O)[C@H](CCCNC(=N)N)NC(=O)[C@H](Cc2ccc(O)cc2)NC(=O)[C@H](Cc2ccc(O)cc2)NC(=O)[C@H](Cc2c[nH]cn2)NC(=O)[C@H](Cc2c[nH]cn2)NC(=O)[C@H](Cc2ccc(O)cc2)NC(=O)CSC[C@@H](C(=O)NCC(N)=O)NC(=O)CNC1=O` ({CH2CO}-YHHYYRILYGEIGCG-NH2; thioether N-14), IC50 422 nM. Against it:
- CC(C)C[C@@H]1NC(=O)[C@H](C)NC(=O)[C@H](CCCNC(=N)N)NC(=O)[C@H](Cc2ccc(O)cc2)NC(=O)[C@H](Cc2ccc(O)cc2)NC(=O)[C@H](Cc2c[nH]cn2)NC(=O)[C@H](Cc2c[nH]cn2)NC(=O)[C@H](Cc2ccc(O)cc2)NC(=O)SC[C@@H](C(=O)NCC(N)=O)NC(=O)CNC(=O)[C@H](CC(C)C)NC(=O)[C@H](CCC(=O)O)NC(=O)CNC(=O)[C@H](Cc2ccc(O)cc2)NC1=O (YHHYYRALYGELGCG-NH2; linker N-14 via CO) — 1.7-fold lower, 254 nM
- CC[C@H](C)[C@@H]1NC(=O)[C@H](Cc2c[nH]cn2)NC(=O)[C@H](Cc2ccc(O)cc2)NC(=O)CSC[C@@H](C(=O)NCC(N)=O)NC(=O)CNC(=O)[C@H](CC(C)C)NC(=O)[C@H](CCCCN)NC(=O)[C@H](CCC(N)=O)NC(=O)[C@H](Cc2ccc(O)cc2)NC(=O)[C@H]([C@@H](C)CC)NC(=O)[C@H](CCC(N)=O)NC(=O)[C@H](CCCNC(=N)N)NC(=O)[C@H](Cc2ccc(O)cc2)NC(=O)[C@H](Cc2ccc(O)cc2)NC1=O ({CH2CO}-YHIYYRQIYQKLGCG-NH2; thioether N-14) — within 1.5-fold, 328 nM
- CC[C@H](C)[C@@H]1NC(=O)[C@H](CO)NC(=O)[C@H](Cc2ccc(O)cc2)NC(=O)[C@H](Cc2ccc(O)cc2)NC(=O)[C@H](Cc2c[nH]cn2)NC(=O)[C@H](Cc2c[nH]cn2)NC(=O)[C@H](Cc2ccc(O)cc2)NC(=O)CSC[C@@H](C(=O)NCC(N)=O)NC(=O)CNC(=O)[C@H](CC(C)C)NC(=O)[C@H](CCC(=O)O)NC(=O)CNC(=O)[C@H](Cc2ccc(O)cc2)NC(=O)[C@H](CC(C)C)NC1=O ({CH2CO}-YHHYYSILYGELGCG-NH2; thioether N-14) — 6-fold higher, 2520 nM
- CC[C@H](C)[C@@H]1NC(=O)[C@H](Cc2c[nH]cn2)NC(=O)[C@H](Cc2ccc(O)cc2)NC(=O)CSC[C@@H](C(=O)NCC(N)=O)NC(=O)CNC(=O)[C@H](CC(C)C)NC(=O)[C@H](CCCCN)NC(=O)CNC(=O)[C@H](Cc2ccc(O)cc2)NC(=O)[C@H](CC(C)C)NC(=O)[C@H](CO)NC(=O)[C@H](C)NC(=O)[C@H](Cc2ccc(O)cc2)NC(=O)[C@H](Cc2ccc(O)cc2)NC1=O ({CH2CO}-YHIYYASLYGKLGCG-NH2; thioether N-14) — 100-fold lower, 4.2 nM
- CC[C@H](C)[C@@H]1NC(=O)[C@H](CCCNC(=N)N)NC(=O)[C@H](Cc2ccc(O)cc2)NC(=O)[C@H](Cc2ccc(O)cc2)NC(=O)[C@H](Cc2c[nH]cn2)NC(=O)[C@H](Cc2c[nH]cn2)NC(=O)[C@H](Cc2ccc(O)cc2)NC(=O)CSC[C@@H](C(=O)NCC(N)=O)NC(=O)CNC(=O)[C@H](CC(C)C)NC(=O)[C@H](CCC(=O)O)NC(=O)CNC(=O)[C@H](Cc2ccc(O)cc2)NC(=O)[C@H](C)NC1=O ({CH2CO}-YHHYYRIAYGELGCG-NH2; thioether N-14) — higher, > 30000 nM
- CC[C@H](C)[C@@H]1NC(=O)[C@H](CC(C)C)NC(=O)[C@H](C)NC(=O)[C@H](CC(C)C)NC(=O)[C@H](Cc2c[nH]c3ccccc23)NC(=O)[C@H](CC(N)=O)NC(=O)[C@H](CC(=O)O)NC(=O)[C@H](Cc2ccccc2)NC(=O)[C@H](Cc2c[nH]cn2)NC(=O)[C@H](Cc2ccc(O)cc2)NC(=O)CSC[C@@H](C(=O)NCC(N)=O)NC(=O)[C@H](CC(C)C)NC1=O ({CH2CO}-YHFDNWLALILCG-NH2; thioether N-12) — higher, > 30000 nM
- CC(C)C[C@@H]1NC(=O)[C@H](CCC(=O)O)NC(=O)CNC(=O)[C@H](Cc2ccc(O)cc2)NC(=O)[C@H](CC(C)C)NC(=O)[C@H](C(C)C)NC(=O)[C@H](CCCNC(=N)N)NC(=O)[C@H](Cc2ccc(O)cc2)NC(=O)[C@H](Cc2ccc(O)cc2)NC(=O)[C@H](Cc2c[nH]cn2)NC(=O)[C@H](Cc2cnc[nH]2)NC(=O)[C@H](Cc2ccc(O)cc2)NC(=O)CSC[C@@H](C(=O)NCC(N)=O)NC(=O)CNC1=O ({CH2CO}-YHHYYRVLYGELGCG-NH2; thioether N-14) — within 1.5-fold, 414 nM
- CC[C@H](C)[C@@H]1NC(=O)[C@H](CCCNC(=N)N)NC(=O)[C@H](Cc2ccc(O)cc2)NC(=O)[C@H](Cc2ccc(O)cc2)NC(=O)[C@H](Cc2c[nH]cn2)NC(=O)[C@H](Cc2c[nH]cn2)NC(=O)[C@H](Cc2ccc(O)cc2)NC(=O)CSC[C@@H](C(=O)NCC(N)=O)NC(=O)[C@H](CO)NC(=O)[C@H](CC(C)C)NC(=O)[C@H](CCC(=O)O)NC(=O)CNC(=O)[C@H](Cc2ccc(O)cc2)NC(=O)[C@H](CC(C)C)NC1=O (stereo in doubt) — higher, > 30000 nM
- CC(C)C[C@@H]1NC(=O)[C@H](CC(C)C)NC(=O)[C@H](CCCCN)NC(=O)[C@H](CO)NC(=O)[C@H](CC(C)C)NC(=O)[C@H](Cc2c[nH]c3ccccc23)NC(=O)[C@H](CC(N)=O)NC(=O)[C@H](CC(=O)O)NC(=O)[C@H](Cc2ccccc2)NC(=O)[C@H](Cc2c[nH]cn2)NC(=O)[C@H](Cc2ccc(O)cc2)NC(=O)CSC[C@@H](C(=O)NCC(N)=O)NC(=O)[C@H](CC(=O)O)NC1=O ({CH2CO}-YHFDNWLSKLLDCG-NH2; thioether N-13) — higher, > 30000 nM
- CC(C)C[C@@H]1NC(=O)[C@H](CO)NC(=O)[C@H](Cc2ccc(O)cc2)NC(=O)[C@H](Cc2ccc(O)cc2)NC(=O)[C@H](Cc2ccc(O)cc2)NC(=O)[C@H](C(C)C)NC(=O)[C@H](Cc2c[nH]cn2)NC(=O)[C@H](Cc2ccc(O)cc2)NC(=O)CSC[C@@H](C(=O)NCC(N)=O)NC(=O)CNC(=O)[C@H](CC(C)C)NC(=O)[C@@H]2CCCN2C(=O)CNC(=O)[C@H](Cc2ccc(O)cc2)NC1=O ({CH2CO}-YHVYYYSLYGPLGCG-NH2; thioether N-14) — 47-fold lower, 9 nM
- CC[C@H](C)[C@@H]1NC(=O)[C@H](CCCNC(=N)N)NC(=O)[C@H](Cc2ccc(O)cc2)NC(=O)[C@H](C)NC(=O)[C@H](Cc2c[nH]cn2)NC(=O)[C@H](Cc2c[nH]cn2)NC(=O)[C@H](Cc2ccc(O)cc2)NC(=O)CSC[C@@H](C(=O)NCC(N)=O)NC(=O)CNC(=O)[C@H](CC(C)C)NC(=O)[C@H](CCC(=O)O)NC(=O)CNC(=O)[C@H](Cc2ccc(O)cc2)NC(=O)[C@H](CC(C)C)NC1=O ({CH2CO}-YHHAYRILYGELGCG-NH2; thioether N-14) — higher, > 30000 nM
- CC[C@H](C)[C@@H]1NC(=O)[C@H](CCCNC(=N)N)NC(=O)[C@H](Cc2ccc(O)cc2)NC(=O)[C@H](Cc2ccc(O)cc2)NC(=O)[C@H](Cc2c[nH]cn2)NC(=O)[C@H](Cc2c[nH]cn2)NC(=O)[C@H](Cc2ccc(O)cc2)NC(=O)CSC[C@@H](C(=O)NCC(N)=O)NC(=O)CNC(=O)[C@H](CC(C)C)NC(=O)[C@H](C)NC(=O)CNC(=O)[C@H](Cc2ccc(O)cc2)NC(=O)[C@H](CC(C)C)NC1=O ({CH2CO}-YHHYYRILYGALGCG-NH2; thioether N-14) — 2.3-fold lower, 180 nM
- CC[C@H](C)[C@@H]1NC(=O)[C@H](CCCNC(=N)N)NC(=O)[C@H](Cc2ccc(O)cc2)NC(=O)[C@H](Cc2ccc(O)cc2)NC(=O)[C@H](Cc2c[nH]cn2)NC(=O)[C@H](Cc2c[nH]cn2)NC(=O)[C@H](Cc2ccc(O)cc2)NC(=O)CSC[C@@H](C(=O)NCC(N)=O)NC(=O)CNC(=O)[C@H](CC(C)C)NC(=O)[C@H](CCC(=O)O)NC(=O)CNC(=O)[C@H](Cc2ccccc2)NC(=O)[C@H](CC(C)C)NC1=O ({CH2CO}-YHHYYRILFGELGCG-NH2; thioether N-14) — 2.9-fold higher, 1230 nM
- CC(C)C[C@@H]1NC(=O)[C@H](CC(N)=O)NC(=O)CNC(=O)[C@H](Cc2ccc(O)cc2)NC(=O)[C@H](CC(C)C)NC(=O)[C@H](CO)NC(=O)[C@H](C(C)C)NC(=O)[C@H](Cc2ccc(O)cc2)NC(=O)[C@H](Cc2ccc(O)cc2)NC(=O)[C@H](CCC(N)=O)NC(=O)[C@H](Cc2c[nH]cn2)NC(=O)[C@H](Cc2ccc(O)cc2)NC(=O)CSC[C@@H](C(=O)NCC(N)=O)NC(=O)CNC1=O ({CH2CO}-YHQYYVSLYGNLGCG-NH2; thioether N-14) — 41-fold lower, 10.4 nM
- CC[C@H](C)[C@@H]1NC(=O)[C@H](CCCNC(=N)N)NC(=O)[C@H](Cc2ccc(O)cc2)NC(=O)[C@H](Cc2ccc(O)cc2)NC(=O)[C@H](Cc2c[nH]cn2)NC(=O)[C@H](Cc2c[nH]cn2)NC(=O)[C@H](Cc2ccc(O)cc2)NC(=O)CSC[C@@H](C(=O)NCC(N)=O)NC(=O)CNC(=O)[C@H](CC(C)C)NC(=O)[C@H](CCC(=O)O)NC(=O)CNC(=O)[C@H](Cc2ccc(O)cc2)NC(=O)[C@@H]2CCCN2C1=O ({CH2CO}-YHHYYRIPYGELGCG-NH2; thioether N-14) — higher, > 30000 nM
- CC[C@H](C)[C@@H]1NC(=O)[C@H](CCCNC(=N)N)NC(=O)[C@H](Cc2ccc(O)cc2)NC(=O)[C@H](Cc2ccc(O)cc2)NC(=O)[C@H](Cc2c[nH]cn2)NC(=O)[C@H](Cc2c[nH]cn2)NC(=O)[C@H](Cc2ccc(O)cc2)NC(=O)CSC[C@@H](C(=O)NCC(N)=O)NC(=O)CNC(=O)[C@H](CC(C)C)NC(=O)[C@H](CCC(=O)O)NC(=O)CNC(=O)[C@H](C)NC(=O)[C@H](CC(C)C)NC1=O ({CH2CO}-YHHYYRILAGELGCG-NH2; thioether N-14) — higher, > 30000 nM

From ChEMBL document CHEMBL5360618, “PepScaf: Harnessing Machine Learning with In Vitro Selection toward De Novo Macrocyclic Peptides against IL-17C/IL-17RE Interaction” (J Med Chem, 2023)
